In general, Ki refers to a measure of affinity in units of concentration, obtained from inhibition or displacement.

Where two headings read alike, the source gives them in different places.

Assay [1] deals with human PDE2A1 (Homo sapiens (Human), UniProt O00408). The experiment in a line: IMAP FP PDE selectivity panel, human PDE2A1. Format: biochemical. The method in brief: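 GST-tagged human PDE2A1 expressed in insect cells, run at room temperature for 60 min with 50 nM FAM-cAMP containing 1000 nM cGMP, pH 7.2 Tris/MgCl2 buffer. IMAP fluorescence polarization read after binding step.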
human PDE2A1, sequence (O00408 other isoform, or with tags, fused parts or gaps): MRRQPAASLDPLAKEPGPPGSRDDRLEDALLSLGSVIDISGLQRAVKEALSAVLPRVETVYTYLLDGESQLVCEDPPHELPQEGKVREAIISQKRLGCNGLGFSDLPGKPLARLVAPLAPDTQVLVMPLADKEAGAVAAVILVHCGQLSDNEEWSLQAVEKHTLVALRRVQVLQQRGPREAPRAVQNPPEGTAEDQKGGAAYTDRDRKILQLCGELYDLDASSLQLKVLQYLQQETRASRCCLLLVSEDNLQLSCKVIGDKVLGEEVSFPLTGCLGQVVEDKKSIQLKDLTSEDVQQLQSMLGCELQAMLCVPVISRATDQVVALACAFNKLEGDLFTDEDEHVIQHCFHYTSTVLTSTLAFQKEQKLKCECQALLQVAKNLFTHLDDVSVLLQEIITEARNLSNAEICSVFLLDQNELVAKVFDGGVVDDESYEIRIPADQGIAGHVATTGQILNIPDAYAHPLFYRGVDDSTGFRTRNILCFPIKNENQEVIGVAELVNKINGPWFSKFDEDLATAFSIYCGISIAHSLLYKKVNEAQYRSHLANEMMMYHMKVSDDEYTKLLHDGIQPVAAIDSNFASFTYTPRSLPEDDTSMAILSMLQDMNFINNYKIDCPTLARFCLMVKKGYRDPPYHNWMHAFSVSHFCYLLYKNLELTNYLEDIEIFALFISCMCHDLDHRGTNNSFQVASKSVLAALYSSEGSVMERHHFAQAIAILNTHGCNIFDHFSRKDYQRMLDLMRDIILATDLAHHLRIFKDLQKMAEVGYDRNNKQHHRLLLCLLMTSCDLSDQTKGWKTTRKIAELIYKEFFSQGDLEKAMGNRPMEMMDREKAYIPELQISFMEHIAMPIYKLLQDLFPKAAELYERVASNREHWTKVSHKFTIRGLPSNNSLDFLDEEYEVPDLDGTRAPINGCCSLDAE

In assay [2] the target is Rhesus PDE2A3 (Macaca mulatta, UniProt B3VTJ2). The assay can be described thus: PDE2 fluorescence polarization (IMAP FP) inhibition assay, rhesus enzyme. The class given is biochemical, rhesus macaque. The method in brief:
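Rhesus PDE2A3 came from lysate of transiently transfected AD293 cells, diluted to give 20% substrate conversion. Substrate was 50 nM FAM-cAMP with 1 uM cGMP activator in Tris pH 7.2/MgCl2 buffer, run 60 min at room temperature over 10-point 3-fold dilutions in 1% DMSO. Read-out was IMAP fluorescence polarization (mP) after ≥1 h binding.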
In general terms: Fluorescence polarisation rises when a labelled molecule tumbles more slowly, as on binding a larger partner.

Where [3] appears, read: Human PDE2, Lab B, read-out: Human PDE2 Ki (nM) - Lab B.
[4] abbreviates: Rhesus PDE2, Lab B, read-out: Rhesus PDE2 Ki (nM) - Lab B.
Where [5] appears, read: Rhesus PDE2, Lab A, read-out: Rhesus PDE2 Ki (nM) - Lab A.
Where [6] appears, read: Human PDE2, Lab A, read-out: Human PDE2 Ki (nM) - Lab A.

Rhesus PDE2A3, sequence (B3VTJ2 1-941): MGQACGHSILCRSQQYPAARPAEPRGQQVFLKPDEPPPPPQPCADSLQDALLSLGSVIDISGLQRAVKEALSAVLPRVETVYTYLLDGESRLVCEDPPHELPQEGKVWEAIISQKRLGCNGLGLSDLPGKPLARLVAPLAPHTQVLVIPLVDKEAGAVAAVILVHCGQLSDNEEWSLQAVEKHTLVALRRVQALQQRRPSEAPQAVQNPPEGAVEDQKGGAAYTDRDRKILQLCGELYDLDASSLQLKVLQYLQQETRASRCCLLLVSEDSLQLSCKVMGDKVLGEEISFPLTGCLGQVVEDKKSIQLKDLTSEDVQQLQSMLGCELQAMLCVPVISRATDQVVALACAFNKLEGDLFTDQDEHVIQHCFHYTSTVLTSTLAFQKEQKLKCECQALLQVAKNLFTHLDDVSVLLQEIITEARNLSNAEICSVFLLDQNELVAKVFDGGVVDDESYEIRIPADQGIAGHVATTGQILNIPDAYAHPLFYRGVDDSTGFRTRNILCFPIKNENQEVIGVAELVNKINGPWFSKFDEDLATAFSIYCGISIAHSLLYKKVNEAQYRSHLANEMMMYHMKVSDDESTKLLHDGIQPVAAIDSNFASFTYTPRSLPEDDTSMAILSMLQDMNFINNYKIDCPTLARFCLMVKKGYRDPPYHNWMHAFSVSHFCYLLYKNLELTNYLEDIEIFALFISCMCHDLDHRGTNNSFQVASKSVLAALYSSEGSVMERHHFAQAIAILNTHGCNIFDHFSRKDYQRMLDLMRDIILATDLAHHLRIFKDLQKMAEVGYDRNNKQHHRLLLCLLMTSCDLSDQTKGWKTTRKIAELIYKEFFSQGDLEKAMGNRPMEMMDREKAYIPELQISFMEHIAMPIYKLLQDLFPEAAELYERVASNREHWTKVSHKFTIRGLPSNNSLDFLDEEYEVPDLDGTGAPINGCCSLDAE

Take `CC[C@@H](NC(=O)c1cc(=O)[nH]c(Cc2ccc(OC)c(F)c2)n1)c1ccc(SC(F)(F)F)cc1` [Example 518, 2-(3-fluoro-4-methoxybenzyl)-6-oxo-N-[(1R)-1-{4-[(trifluoromethyl)sulfanyl]phenyl}propyl]-1,6-dihydropyrimidine-4-carboxamide]: the figures for the Ki in assay [1] (setting [3]) and in assay [2] (setting [4]) were 1.7 nM and 1.8 nM, respectively.
Turning to `CC(C)(NC(=O)c1cc(=O)[nH]c(-c2ccccc2)n1)c1ccccc1Br` [Example 373, N-[1-(2-bromophenyl)-1-methylethyl]-6-oxo-2-phenyl-1,6-dihydropyrimidine-4-carboxamide], the Ki in assay [1] (setting [3]) is 183 nM; in assay [2] (setting [5]) it was 155 nM; in assay [2] (setting [4]), 225 nM.
For `CC(C)(C)[C@@H](NC(=O)c1cc(=O)[nH]c(-c2ccccc2)n1)c1ccc(OC(F)F)cc1` [Example 449, N-{(1R)-1-[4-(difluoromethoxy)phenyl]-2,2-dimethylpropyl}-6-oxo-2-phenyl-1,6-dihydropyrimidine-4-carboxamide], the values for the Ki in assay [1] (setting [3]) and in assay [2] (setting [4]) were 1.8 nM and 2.6 nM, respectively.
Take `O=C(N[C@@H](c1ccc(OC(F)(F)F)cc1)C1CC1)c1cc(=O)[nH]c(C2CC2)n1` [Example 211, 2-cyclopropyl-N-{(R)-cyclopropyl[4-(trifluoromethoxy)phenyl]methyl}-6-oxo-1,6-dihydropyrimidine-4-carboxamide]: the Ki in assay [1] (setting [6]) was 2.5 nM; in assay [2] (setting [5]), 7.1 nM.
As for `CCc1ccc(C(C)NC(=O)c2cc(=O)[nH]c(-c3ccccc3)n2)cc1` (centres unmarked) [Example 165, N-[1-(4-ethylphenyl)ethyl]-6-oxo-2-phenyl-1,6-dihydropyrimidine-4-carboxamide], the Ki stood at 12 nM in assay [1] (setting [6]) and 16 nM in assay [2] (setting [5]).
`CC[C@@H](NC(=O)c1cc(=O)[nH]c(C2CC2)n1)c1ccc(SC(F)(F)F)c(F)c1` [Example 246, 2-cyclopropyl-N-[(1R)-1-{3-fluoro-4-[(trifluoromethyl)sulfanyl]phenyl}propyl]-6-oxo-1,6-dihydropyrimidine-4-carboxamide]: the Ki is 5.2 nM in assay [1] (setting [3]), 3.1 nM in assay [2] (setting [5]) and 5.4 nM in assay [2] (setting [4]).
Take `CC(C)(NC(=O)c1cc(=O)[nH]c(-c2ccccc2)n1)c1ccc(C(F)(F)F)c(F)c1` [Example 158, N-{1-[3-fluoro-4-(trifluoromethyl)phenyl]-1-methylethyl}-6-oxo-2-phenyl-1,6-dihydropyrimidine-4-carboxamide]: the Ki in assay [1] (setting [6]) is 9 nM; in assay [2] (setting [5]), 14 nM.
For `Cc1nc(C(=O)NC(C)(C)c2ccc(SC(F)(F)F)c(F)c2)cc(=O)[nH]1` [Example 259, N-(1-{3-fluoro-4-[(trifluoromethyl)sulfanyl]phenyl}-1-methylethyl)-2-methyl-6-oxo-1,6-dihydropyrimidine-4-carboxamide], the figures for the Ki in assay [1] (setting [3]), in assay [2] (setting [5]) and in assay [2] (setting [4]) were 179 nM, 124 nM and 209 nM, respectively.
For the molecule `O=C(NC1(c2ccc(C(F)(F)F)cc2)CCC1)c1cc(=O)[nH]c(-c2ccccc2)n1` [Example 278, 6-oxo-2-phenyl-N-{1-[4-(trifluoromethyl)phenyl]cyclobutyl}-1,6-dihydropyrimidine-4-carboxamide], the Ki in assay [1] (setting [6]) came to 12 nM; in assay [2] (setting [5]), 18 nM.
Turning to `COc1cc(C(C)NC(=O)c2cc(=O)[nH]c(-c3ccccc3)n2)ccc1C(F)(F)F` (centres unmarked) [Example 155], the Ki in assay [1] (setting [6]) stood at 143 nM; in assay [2] (setting [5]), 119 nM.
Turning to `COc1cc(C(C)NC(=O)c2cc(=O)[nH]c(-c3ccccc3)n2)cc(OC)c1OC` (centres unmarked) [Example 351, 6-oxo-2-phenyl-N-[1-(3,4,5-trimethoxyphenyl)ethyl]-1,6-dihydropyrimidine-4-carboxamide], the Ki in assay [1] (setting [3]) came out at 224 nM; in assay [2] (setting [5]), 124 nM; in assay [2] (setting [4]) it was 217 nM.
`O=C(NC1(c2ccc(OC(F)(F)F)cc2)CCC1)c1cc(=O)[nH]c(C2CC2)n1` [Example 300, 2-cyclopropyl-6-oxo-N-{1-[4-(trifluoromethoxy)phenyl]cyclobutyl}-1,6-dihydropyrimidine-4-carboxamide]: the inhibition constant (Ki) in assay [1] (setting [6]) was found to be 55 nM; in assay [2] (setting [5]), 88 nM.
Regarding `CC(NC(=O)c1cc(=O)[nH]c(-c2ccccc2)n1)c1ccc2c(c1)OCCO2` (centres unmarked) [Example 360, N-[1-(2,3-dihydro-1,4-benzodioxin-6-yl)ethyl]-6-oxo-2-phenyl-1,6-dihydropyrimidine-4-carboxamide], the Ki in assay [1] (setting [3]) is roughly 488 nM; in assay [2] (setting [5]), 222 nM; in assay [2] (setting [4]), 459 nM.
With `COc1ccc(Cc2nc(C(=O)N[C@@H](c3ccc(SC(F)(F)F)cc3)C(C)(C)C)cc(=O)[nH]2)cc1F` [Example 507, N-[(1R)-2,2-dimethyl-1-{4-[(trifluoromethyl)sulfanyl]phenyl}propyl]-2-(3-fluoro-4-methoxybenzyl)-6-oxo-1,6-dihydropyrimidine-4-carboxamide], the values for the Ki in assay [1] (setting [3]) and in assay [2] (setting [4]) were 1 nM and 1.1 nM, respectively.
As for `CC[C@@H](NC(=O)c1cc(=O)[nH]c(Cc2ccc(OC)cc2)n1)c1ccc(SC(F)(F)F)c(F)c1` [Example 477, N-[(1R)-1-{3-fluoro-4-[(trifluoromethyl)sulfanyl]phenyl}propyl]-2-(4-methoxybenzyl)-6-oxo-1,6-dihydropyrimidine-4-carboxamide], the figures for the Ki in assay [1] (setting [3]) and in assay [2] (setting [4]) were 1.7 nM and 1.5 nM, respectively.
Taken in the same sequence, the figures for `Cc1nc(C(=O)NC(C)(c2ccc(S(F)(F)(F)(F)F)cc2)C(C)C)cc(=O)[nH]1` (single isomer, unassigned) [Example 663, (R)- or (S)-N-{1,2-dimethyl-1-[4-(pentafluoro-λ^6-sulfanyl)phenyl]propyl}-2-methyl-6-oxo-1,6-dihydropyrimidine-4-carhoxamide] were 34 nM and 30 nM.
On the same counts, the results for `Cc1nc(C(=O)N[C@@H](c2ccc(OC(F)F)cc2)C(C)C)cc(=O)[nH]1` [Example 611, N-{(1R)-1-[4-(difluoromethoxy)phenyl]-2-methylpropyl}-2-methyl-6-oxo-1,6-dihydropyrimidine-4-carboxamide] are 37 nM and 44 nM.
In the case of `O=C(N[C@H](CC(F)(F)F)c1ccc(C(F)(F)F)cc1)c1cc(=O)[nH]c(-c2ccccc2)n1` [Example 353, 6-oxo-2-phenyl-N-{(1R)-3,3,3-trifluoro-1-[4-(trifluoromethyl)phenyl]propyl}-1,6-dihydropyrimidine-4-carboxamide], the figures for the Ki in assay [1] (setting [3]), in assay [2] (setting [5]) and in assay [2] (setting [4]) were 21 nM, roughly 9.2 nM and 23 nM, respectively.
Regarding `O=C(NC(c1ccc(F)cc1)c1ccc(C(F)(F)F)cc1)c1cc(=O)[nH]c(-c2ccccc2)n1` (centres unmarked) [Example 367, N-{(4-fluorophenyl)[4-(trifluoromethyl)phenyl]methyl}-6-oxo-2-phenyl-1,6-dihydropyrimidine-4-carboxamide], the Ki in assay [1] (setting [3]) was 262 nM; in assay [2] (setting [5]) it was 74 nM; in assay [2] (setting [4]), 314 nM.
On to `COc1ccc(C(C)(C)c2nc(C(=O)N[C@@H](c3ccc(SC(F)(F)F)c(F)c3)C(C)C)cc(=O)[nH]2)cc1` [Example 491, N-[(1R)-1-{3-fluoro-4-[(trifluoromethyl)sulfanoyl]phenyl}-2-methylpropyl]-2-[1-(4-methoxyphenyl)-1-methylethyl]-6-oxo-1,6-dihydropyrimidine-4-carboxamide], for which the Ki in assay [1] (setting [3]) and in assay [2] (setting [4]) was 27 nM in each case.

These data come from patent US9815796B2 (Merck Sharp & Dohme Corp., priority 2013, dated 2017).
